Reference: patent US9353090B2, “Heterocyclic carboxylic acids as activators of soluble guanylate cyclase” (Boehringer Ingelheim International GmbH, priority 2014, dated 2016)
Values after ≈ are worked out from the molar mass of the structure shown.

Assays:
physchem = conditions: kinetic from dmso stock
[1] = Human liver microsome (HLM) metabolic stability assay; assay type: in vitro ADME; conditions: human liver microsomes
Outline: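 Compound at 1 uM incubated with human liver microsomes at 37° C. for 60 min after NADPH addition. Aliquots quenched in cold acetonitrile at 0, 5, 15, 30 and 60 min and analysed by LC/MS/MS. t1/2 from ln(% remaining) vs time slope; CLint, CLh and % Qh derived from it (n=1).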

[2] = target: human soluble guanylate cyclase alpha 1 and beta 1 subunits (sGC) (Homo sapiens (Human), UniProt Q02108+Q02153); assay: sGC cellular activator assay (cGMP, HTRF), in the presence and absence of 50% human serum; assay type: cell-based; conditions: CHO cells stably expressing human sGC alpha 1/beta 1, preincubated with 40 microM ODQ; cGMP by HTRF; Table 2 does not state whether with or without 50% human serum
Outline: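 Heme-oxidized conditions: ODQ (40 microM, 1 h) pretreatment of CHO cells stably expressing human α1/β1 sGC, in buffer containing 0.1% BSA and IBMX.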

[3] = pH 2.2, aqueous buffer, Solubility (pH 2.2)
[4] = pH 4.5, aqueous buffer, Solubility (pH 4.5)
[5] = pH 6.8, aqueous buffer, Solubility (pH 6.8)

Chain of human soluble guanylate cyclase alpha 1 and beta 1 subunits (sGC) (Q02108 whole entry partner): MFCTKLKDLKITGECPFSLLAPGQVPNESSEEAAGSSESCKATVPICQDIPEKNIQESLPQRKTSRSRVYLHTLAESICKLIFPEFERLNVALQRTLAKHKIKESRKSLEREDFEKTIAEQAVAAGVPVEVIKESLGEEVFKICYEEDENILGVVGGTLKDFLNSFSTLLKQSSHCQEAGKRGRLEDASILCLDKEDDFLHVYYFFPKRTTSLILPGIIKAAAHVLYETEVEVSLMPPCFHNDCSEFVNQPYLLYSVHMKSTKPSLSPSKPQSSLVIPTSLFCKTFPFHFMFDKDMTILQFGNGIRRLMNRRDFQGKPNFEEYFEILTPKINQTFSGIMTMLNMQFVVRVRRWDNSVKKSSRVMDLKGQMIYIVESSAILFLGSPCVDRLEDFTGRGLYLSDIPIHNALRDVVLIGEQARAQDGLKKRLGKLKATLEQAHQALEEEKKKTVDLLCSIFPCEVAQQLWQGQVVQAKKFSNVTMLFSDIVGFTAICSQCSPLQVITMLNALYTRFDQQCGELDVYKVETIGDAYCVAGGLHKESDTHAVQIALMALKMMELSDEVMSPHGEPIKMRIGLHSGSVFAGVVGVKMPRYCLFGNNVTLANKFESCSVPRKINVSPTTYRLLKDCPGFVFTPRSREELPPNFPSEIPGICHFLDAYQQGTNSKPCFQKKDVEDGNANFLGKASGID
Chain of human soluble guanylate cyclase alpha 1 and beta 1 subunits (sGC) (Q02153 whole entry): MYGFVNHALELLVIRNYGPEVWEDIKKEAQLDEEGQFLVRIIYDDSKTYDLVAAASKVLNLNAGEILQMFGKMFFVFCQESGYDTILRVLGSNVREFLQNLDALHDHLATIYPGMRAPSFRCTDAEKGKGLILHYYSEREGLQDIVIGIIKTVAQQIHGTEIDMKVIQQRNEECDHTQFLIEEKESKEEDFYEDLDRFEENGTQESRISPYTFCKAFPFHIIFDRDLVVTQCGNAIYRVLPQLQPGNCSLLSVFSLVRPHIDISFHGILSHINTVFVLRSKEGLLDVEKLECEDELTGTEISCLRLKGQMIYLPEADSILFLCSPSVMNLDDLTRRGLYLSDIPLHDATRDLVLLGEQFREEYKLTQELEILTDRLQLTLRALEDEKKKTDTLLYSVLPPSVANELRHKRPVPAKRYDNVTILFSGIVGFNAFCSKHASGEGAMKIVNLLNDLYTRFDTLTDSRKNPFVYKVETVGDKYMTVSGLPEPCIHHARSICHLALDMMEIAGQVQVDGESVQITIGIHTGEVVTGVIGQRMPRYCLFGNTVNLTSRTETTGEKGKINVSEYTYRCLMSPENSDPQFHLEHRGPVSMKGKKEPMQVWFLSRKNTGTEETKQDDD

| Structure (SMILES) | solubility at 24 h (physchem; [3]) [µg/mL] | solubility at 24 h (physchem; [4]) [µg/mL] | solubility at 24 h (physchem; [5]) [µg/mL] | Metabolic stability (Qh %), % hepatic blood flow [1] [%] | EC50 [2] [nM] |
| --- | --- | --- | --- | --- | --- |
| Cc1c(COc2ccccc2-c2cccc(N3CC[C@@]4(C(=O)O)C[C@H]4C3)n2)ccc2c1CCN(C1CCC1)C2 [Compound 292] | 113 (≈ 216 µM) | 43.5 (≈ 83.1 µM) | 6.2 (≈ 11.8 µM) | 47 | 3 |
| CO[C@@H]1CN(c2cccc(-c3cccc(C)c3OCc3cc(C)c4c(c3)CCN(C3CCOCC3)CC4)n2)CC[C@@H]1C(=O)O [Compound 293] | 116 (≈ 193 µM) | 82.3 (≈ 137 µM) | 63.1 (≈ 105 µM) | 25 | 1 |
| CO[C@H]1CN(c2cccc(-c3cccc(C)c3OCc3ccc4c(c3C)CCN(C3CCOCC3)CC4)n2)CC[C@@H]1C(=O)O [Compound 296] | 132 (≈ 219 µM) | 77.2 (≈ 129 µM) | 68.8 (≈ 115 µM) | <24 | 363 |
| CO[C@@H]1CN(c2cccc(-c3cccc(C)c3OCc3ccc4c(c3C)CCN(C3CCOCC3)CC4)n2)CC[C@H]1C(=O)O [Compound 297] | 134 (≈ 224 µM) | 93.7 (≈ 156 µM) | 77.3 (≈ 129 µM) | <24 | 150 |
| CO[C@H]1CN(c2cccc(-c3cccc(C)c3OCc3cc(C)c4c(c3)CCN(C3CCOCC3)C4)n2)CC[C@@H]1C(=O)O [Compound 298] | 131 (≈ 224 µM) | 98.1 (≈ 167 µM) | 80.1 (≈ 137 µM) | 34 | 578 |
| CO[C@@H]1CN(c2cccc(-c3cccc(C)c3OCc3cc(C)c4c(c3)CCN(C3CCOCC3)C4)n2)CC[C@H]1C(=O)O [Compound 299] | 134 (≈ 229 µM) | 90.8 (≈ 155 µM) | 70.8 (≈ 121 µM) | 31 | 152 |
| CO[C@@H]1CN(c2cccc(-c3cccc(C)c3OCc3ccc4c(c3C)CCN(C)CC4)n2)CC[C@@H]1C(=O)O [Compound 300] | 116 (≈ 220 µM) | 82.3 (≈ 155 µM) | 62.3 (≈ 118 µM) | <24 | 154 |
| CO[C@@H]1CN(c2cccc(-c3cccc(C)c3OCc3ccc4c(c3C)CCN([C@H]3CCOC3)CC4)n2)CC[C@@H]1C(=O)O [Compound 301] | 141 (≈ 241 µM) | 105 (≈ 180 µM) | 91.1 (≈ 156 µM) | <24 | 1 |
| CO[C@@H]1CN(c2cccc(-c3cccc(C)c3OCc3ccc4c(c3C)CCN([C@@H]3CCOC3)CC4)n2)CC[C@@H]1C(=O)O [Compound 302] | 148 (≈ 252 µM) | 112 (≈ 190 µM) | 85.5 (≈ 146 µM) | <24 | 3 |
| Cc1cc(COc2c(C)cccc2-c2csc(N3CC[C@@]4(C(=O)O)C[C@H]4C3)n2)cc2c1CN(C1CCC(F)(F)CC1)CC2 [Compound 303] | 141 (≈ 232 µM) | 16.4 (≈ 27 µM) | 1 (≈ 1.65 µM) | 79 | 2 |
| Cc1c(COc2ccccc2-c2cccc(N3CC[C@@]4(C(=O)O)C[C@H]4C3)n2)ccc2c1CCNC2 [Compound 305] | 108 (≈ 231 µM) | 81.2 (≈ 173 µM) | 0.7 (≈ 1.49 µM) | 30 | 340 |
| Cc1c(COc2ccccc2-c2cccc(N3CC[C@@]4(C(=O)O)C[C@H]4C3)n2)ccc2c1CCN(C(C)c1ccccn1)C2 (stereo partly drawn) [Compound 306] | 141 (≈ 246 µM) | 97.1 (≈ 169 µM) | 5.2 (≈ 9.05 µM) | 61 | 3 |
| CO[C@@H]1CN(c2cccc(-c3cccc(C)c3OCc3ccc4c(c3C)CN(C3CCOCC3)C4)n2)CC[C@@H]1C(=O)O [Compound 307] | 127 (≈ 223 µM) | 101 (≈ 176 µM) | 81.2 (≈ 142 µM) | <24 | 19 |
| Cc1c(COc2ccccc2-c2cccc(N3CC[C@@]4(C(=O)O)C[C@H]4C3)n2)ccc2c1CCN(Cc1cncn1C)C2 [Compound 308] | 135 (≈ 239 µM) | 97.5 (≈ 173 µM) | 0.1 (≈ 0.177 µM) | 43 | 10 |
| Cc1nccnc1C(C)N1CCc2c(ccc(COc3ccccc3-c3cccc(N4CC[C@@]5(C(=O)O)C[C@H]5C4)n3)c2C)C1 (stereo partly drawn) [Compound 309] | 163 (≈ 276 µM) | 116 (≈ 197 µM) | 23.8 (≈ 40.4 µM) | 54 | 18 |
| Cc1cc(CN2CCc3c(ccc(COc4ccccc4-c4cccc(N5CC[C@@]6(C(=O)O)C[C@H]6C5)n4)c3C)C2)no1 [Compound 311] | 99.5 (≈ 176 µM) | 61.6 (≈ 109 µM) | 0.5 (≈ 0.885 µM) | 63 | 3 |
| CO[C@H]1CN(c2nc(-c3cccc(C)c3OCc3ccc4c(c3)[C@@H](C)CN(C3CCOCC3)CC4)cs2)CC[C@H]1C(=O)O [Compound 312] | 155 (≈ 256 µM) | 143 (≈ 236 µM) | 146 (≈ 242 µM) | <24 | 3 |
| CO[C@H]1CN(c2nc(-c3cccc(C)c3OCc3ccc4c(c3)[C@H](C)CN(C3CCOCC3)CC4)cs2)CC[C@H]1C(=O)O [Compound 313] | 141 (≈ 233 µM) | 136 (≈ 225 µM) | 133 (≈ 219 µM) | <24 | 7 |
| COC[C@H]1N(c2cccc(-c3cccc(C)c3OCc3cc(C)c4c(c3)OCCN(C3CCOCC3)C4)n2)C[C@@H]2C[C@@]21C(=O)O [Compound 314] | 115 (≈ 188 µM) | 110 (≈ 179 µM) | 98.9 (≈ 161 µM) | <24 | 529 |
| CCOC[C@H]1N(c2cccc(-c3cccc(C)c3OCc3cc(C)c4c(c3)CCN(C3CCOCC3)C4)n2)C[C@@H]2C[C@@]21C(=O)O [Compound 315] | 137 (≈ 224 µM) | 135 (≈ 221 µM) | 119 (≈ 195 µM) | <24 | 18 |
| CCOC[C@@H]1N(c2cccc(-c3cccc(C)c3OCc3cc(C)c4c(c3)CCN(C3CCOCC3)C4)n2)C[C@@H]2C[C@@]21C(=O)O [Compound 316] | 147 (≈ 240 µM) | 149 (≈ 243 µM) | 142 (≈ 232 µM) | 39 | 222 |
| COC[C@H]1N(c2cccc(-c3cccc(C)c3OCc3cnc4c(c3)CCN(C3CCOCC3)CC4)n2)C[C@@H]2C[C@@]21C(=O)O [Compound 317] | 158 (≈ 263 µM) | 152 (≈ 253 µM) | 139 (≈ 232 µM) | <24 | 245 |
| COC[C@H]1N(c2cccc(-c3cccc(C)c3OCc3ccc4c(n3)CCN(C3CCOCC3)C4)n2)C[C@@H]2C[C@@]21C(=O)O [Compound 318] | 151 (≈ 258 µM) | 123 (≈ 211 µM) | 73.7 (≈ 126 µM) | <24 | 739 |
| CO[C@H]1CN(c2nc(-c3cccc(Cl)c3OCc3ccc4c(c3)[C@@H](C)CN(C3CCOCC3)CC4)cs2)CC[C@H]1C(=O)O [Compound 319] | 109 (≈ 173 µM) | 60.2 (≈ 96.1 µM) | 55.4 (≈ 88.5 µM) | 25 | 1 |
